Data as given in the NIST ThermoML archive (doi:10.1016/j.jct.2006.12.012).

Assay: xn = mol fraction of the nth substance listed
Conditions: 101 kPa, Liquid

C[S+](C)[O-] [dimethyl sulfoxide] + O
Conditions | mass density, 298.15 K [kg/m3] | mass density, 303.15 K [kg/m3] | mass density, 308.15 K [kg/m3] | mass density, 313.15 K [kg/m3] | mass density, 318.15 K [kg/m3] | viscosity, 298.15 K [mPa·s] | viscosity, 303.15 K [mPa·s] | viscosity, 308.15 K [mPa·s] | viscosity, 313.15 K [mPa·s] | viscosity, 318.15 K [mPa·s]
x1 = 0.0238 | 1009.5 | 1007.8 | 1005.89 | 1003.79 | 1001.51 | 1.033 | 0.9386 | 0.8541 | 0.7751 | 0.6982
x1 = 0.0489 | 1021.56 | 1019.59 | 1017.38 | 1015.03 | 1012.48 | 1.258 | 1.148 | 1.041 | 0.9371 | 0.8322
x1 = 0.0796 | 1034.64 | 1032.3 | 1029.76 | 1027.04 | 1024.2 | 1.597 | 1.454 | 1.309 | 1.165 | 1.02
x1 = 0.1183 | 1048.91 | 1046.26 | 1043.35 | 1040.22 | 1036.98 | 2.067 | 1.872 | 1.671 | 1.471 | 1.269
x1 = 0.1587 | 1061.32 | 1058.32 | 1055.11 | 1051.58 | 1047.91 | 2.549 | 2.295 | 2.036 | 1.778 | 1.519
x1 = 0.2036 | 1072.5 | 1069.04 | 1065.5 | 1061.82 | 1057.83 | 3.017 | 2.704 | 2.389 | 2.075 | 1.761
x1 = 0.2379 | 1079.21 | 1075.61 | 1071.77 | 1067.99 | 1063.81 | 3.301 | 2.954 | 2.604 | 2.258 | 1.911
x1 = 0.2768 | 1085.26 | 1081.43 | 1077.51 | 1073.27 | 1069.16 | 3.537 | 3.162 | 2.786 | 2.413 | 2.04
x1 = 0.3074 | 1088.96 | 1085.02 | 1080.99 | 1076.81 | 1072.4 | 3.656 | 3.269 | 2.881 | 2.496 | 2.11
x1 = 0.3335 | 1091.44 | 1087.45 | 1083.41 | 1079.21 | 1074.68 | 3.714 | 3.322 | 2.93 | 2.54 | 2.149
x1 = 0.3638 | 1093.61 | 1089.68 | 1085.47 | 1081.11 | 1076.63 | 3.735 | 3.344 | 2.953 | 2.562 | 2.172
x1 = 0.3906 | 1095.11 | 1091.09 | 1086.84 | 1082.43 | 1077.78 | 3.717 | 3.331 | 2.946 | 2.56 | 2.175
x1 = 0.4412 | 1097.04 | 1092.88 | 1088.48 | 1084.05 | 1079.52 | 3.606 | 3.241 | 2.876 | 2.508 | 2.142
x1 = 0.5193 | 1098.34 | 1094.01 | 1089.48 | 1085.1 | 1080.42 | 3.312 | 2.992 | 2.671 | 2.348 | 2.025
x1 = 0.5677 | 1098.66 | 1094.24 | 1089.61 | 1085.12 | 1080.33 | 3.102 | 2.81 | 2.519 | 2.227 | 1.934
x1 = 0.6195 | 1098.86 | 1094.29 | 1089.61 | 1085.01 | 1080.01 | 2.883 | 2.62 | 2.355 | 2.097 | 1.835
x1 = 0.6813 | 1098.85 | 1094.13 | 1089.3 | 1084.66 | 1079.61 | 2.656 | 2.421 | 2.183 | 1.958 | 1.727
x1 = 0.7595 | 1098.49 | 1093.75 | 1088.81 | 1083.92 | 1078.92 | 2.432 | 2.225 | 2.009 | 1.818 | 1.616
x1 = 0.8095 | 1098.02 | 1093.29 | 1088.4 | 1083.63 | 1078.58 | 2.32 | 2.129 | 1.926 | 1.749 | 1.559
x1 = 0.8856 | 1097.3 | 1092.53 | 1087.58 | 1082.75 | 1077.68 | 2.175 | 2.006 | 1.818 | 1.659 | 1.486
x1 = 0.9407 | 1096.83 | 1091.95 | 1086.95 | 1082.04 | 1076.93 | 2.08 | 1.92 | 1.746 | 1.599 | 1.438
x1 = 0.9781 | 1096.41 | 1091.56 | 1086.54 | 1081.71 | 1076.53 | 2.024 | 1.863 | 1.697 | 1.558 | 1.409
x1 = 1 | 1096.29 | 1091.44 | 1086.41 | 1081.59 | 1076.46 | 1.996 | 1.836 | 1.669 | 1.535 | 1.393
